One may read the melting point as the temperature, or range, at which the solid turns liquid. In turn, `O=[N+]([O-])c1ccc2c(c1)S(=O)(=O)c1cc(F)ccc1-2` displayed a melting point of 275 to 279 °C. On to `COC(=O)c1ccc(OCCNC(=O)C2Cc3ccccc3N2S(=O)(=O)c2ccc(-c3ccc(F)cc3)cc2)c(C)c1` (centres undefined), for which the melting point was in the range of 81 to 85 °C.

`O=C(Cc1ccc(Cl)cc1)c1ccc(OC(F)F)cc1` had a melting point of 74 to 76 °C. Under `CCCCCCN(C)c1ccc(C=C2SC(=S)N(CC(=O)NC)C2=O)cc1` stands 228 to 230 °C; under `CCCCOc1c(CNC(=O)OC(C)(C)C)n(CC2CC2)c(=O)c2ccc(C(=O)OC)cc12`, 139 to 140 °C. To `CCn1c2cc(C=O)ccc2c2ccc3ccccc3c21` belongs 138 to 139 °C.

With `Cc1cccc(NC(=O)NCC(=O)N2[C@@H](C(=O)OC(C)(C)C)C[C@H](CO)[C@H]2c2ccccc2)c1` (racemic), the melting point was found to be 168 °C. To `Cn1c(-c2cc(C(C)(C)C)c(O)c(C(C)(C)C)c2)cnc1S` belongs 288 to 289 °C. To `CCCOc1ccc(-c2c(C(=O)OC)c(C(=O)OC)c(O)c3cc(OC)c(OC)c(OC)c23)cc1OCCC` belongs 132 °C; to `Cc1nccn1-c1nc(-c2ccc(Cl)cc2)c(CCC(N)=O)o1`, 215 to 216 °C. To `CC(C)(C)OC(=O)N[C@H](Cc1ccc(C(F)(F)F)cc1)[C@@H](O)c1ccc(F)cc1` (racemic) belongs 158 to 159 °C. In turn, `COc1cccc(C(=O)Nc2ccc(N3CCN(Cc4cccc(C#N)c4)CC3)cc2)c1OCc1ccc(C(F)(F)F)cc1` came in with a melting point of 118 to 120 °C. Under `CC(C)n1nc(-c2sc(NC(=O)c3cccc(F)c3)nc2-c2ccccc2)ccc1=O` stands 183 to 184 °C. To `CNC(=O)NCCn1c(-c2ccc(N3CCOCC3)cc2)csc1=Nc1ccc(F)cc1` belongs 191 to 194 °C. To `CCOc1ccc(C2=NC(=O)C(C)(C(C)C)N2)nc1` (centres undefined) belongs 143 to 145 °C; to `CCCSCCNC(=O)n1cc(F)c(=O)[nH]c1=O`, 112 to 114 °C.

Turning to `CC(=O)O[C@]1(C)CC[C@@H]2C[C@H]1OO[C@@]2(C)CS(=O)(=O)c1ccccc1`, the melting point is 98 to 99 °C.

With `COc1cc(OC)nc(Oc2ccc(N)nc2C(=O)ON=C(C)C)n1`, the melting point was in the range of 210 to 214 °C.

For the compound `Cn1cc(S(=O)(=O)Cl)c(=O)c2ccc(F)cc21`, the melting point was in the range of 194 to 196 °C.

Compound `C=C1COc2ccc(C(=O)OC)cc2C(Cc2ccccc2)(S(=O)(=O)c2ccccc2)C1` (centres undefined) showed a melting point of 164 to 165 °C. To `CC(C(=O)O)c1ccc2nc3ccc(S(C)(=O)=O)cn3c(=O)c2c1` (centres undefined) belongs 240 °C; to `NNC(=O)c1ncn2c1[C@@H]1CCCN1C(=O)c1sccc1-2`, > 260 °C; to `CC(=O)Nc1c(C(=O)c2ccccc2)[nH]c2cccc(F)c12`, 131 to 133 °C.

`CCOC(=O)C(OCc1ccccc1)C(=O)c1cc(Cl)ccc1OCc1ccccc1` (centres undefined) displayed a melting point of 64 to 65 °C. To `N#Cc1cncc(C=O)c1` belongs 96 to 98 °C. With `CC(c1ccc(-c2ccccc2)c(F)c1)c1csc(NS(C)(=O)=O)n1` (centres undefined), the melting point fell in the range of 128 to 129 °C. To `Cc1ccc2occ(CC3=NOS(=O)N3)c2c1` (centres undefined) belongs 152 to 153 °C; to `Cc1ccc2c3c(ccc2n1)OC[C@H](CNC(=O)C1CCc2c([nH]c4ccc(F)cc24)C1)O3` (some centres undefined), 92 to 96 °C.

Compound `Cc1cc(N2CCOCC2)nc(N)c1N` came in with a melting point of 97 to 108 °C. To `CC(C)(C)CC(C)(C)c1cc(N=Nc2cc(C(F)(F)F)ccc2Cl)c(O)c(C(C)(C)c2ccccc2)c1` belongs 120 to 127 °C. Under `Cc1ccc(NC(=O)c2ccc(C#N)cc2)cc1NC(=O)c1ccc(O)cc1` stands 297 to 299 °C. In turn, `Fc1ccc(SC(F)(F)C(F)(F)C(F)(F)C(F)(F)C(F)(F)C(F)(F)C(F)(F)C(F)(F)Sc2ccc(F)cc2)cc1` came in with a melting point of 60 to 61 °C. To `N#CN=C(Nc1ccc([N+](=O)[O-])cc1O)Nc1ccccc1Cl` belongs 163 to 164 °C. To `CCOC(=O)c1cnc(Nc2cccc(OC)c2)[nH]c1=O` belongs 233 to 234 °C. Under `CN(Cc1ccc(S(C)(=O)=O)c(S(N)(=O)=O)c1)S(C)(=O)=O` stands 165 to 169 °C; under `O=c1[nH][nH]c(=O)n1-c1ccc(Cl)cc1`, 234 to 236 °C.

Turning to `CCOCCc1ccc(OCCNc2nc(C)nc(C)c2Cl)c(C)c1`, the melting point lay in the range of 61 to 63 °C. Consider `CCCN1C(=O)N2CC(c3cccnc3)CN=C2c2[nH]c(C3CCCC3)nc21` (centres undefined), for which the melting point lay within 190 to 195 °C. In turn, `O=CNc1ccccc1C(=O)Nc1nnn[nH]1` yielded a melting point of 247 to 248 °C. On to `Nc1c(F)c(N2C[C@@H](N)[C@@H](n3ccnn3)C2)c(F)c2c1c(=O)c(C(=O)O)cn2C1CC1` (relative stereo), for which the melting point lay within 275 to 277 °C. As to `CC1CCN(c2c(F)cc3c(=O)c(C(=O)O)cn4c3c2CCC4C)CC1` (centres undefined), the melting point is 266 to 268 °C. To `c1ccc2c(c1)CC1=C2CCCC1` belongs 57 °C; to `CS(=O)(=O)OCCCc1ccc(OCc2ccccc2)cc1`, 74 to 75 °C. Compound `O=C(NCCN1CCCCC1)c1nc(NCC(c2ccccc2)c2ccccc2)c2ncn([C@@H]3O[C@H](CO)[C@@H](O)[C@H]3O)c2n1` showed a melting point of 182 °C. To `O=c1[nH]c(=O)n(Cc2ccc(OCCCCCCCCCOc3ccc(Cn4oc(=O)[nH]c4=O)cc3)cc2)o1` belongs 149 to 151 °C; to `COc1ccc(-c2nsc(C(=O)O)c2C(=O)O)cc1OC`, 190 to 192 °C; to `CCn1nc(-c2ccccc2)c(C(C)=O)c(Nc2cc(Br)cc3cccnc23)c1=O`, 147 to 148 °C. Under `CC1(O)OC(=O)C(c2c(F)cc(F)cc2F)=C1c1cccs1` (centres undefined) stands 134 to 136 °C; under `CCCCNC(=O)NS(=O)(=O)c1cc(Cl)ccc1C(=O)OC(C)C`, 129 °C; under `COc1ccc(Br)c(C=O)c1OC(C)=O`, 119 to 120 °C. Under `COc1ccc(CN(C)CCCc2ccc(NC(=O)c3cccc4c(=O)cc(-c5ccccc5)[nH]c34)cc2)cc1OC` stands 180 °C; under `O=C(O)c1cc(Oc2ccccc2)ccc1O`, 126 to 128 °C. `CCCC(O)c1cc2c(=O)n(NS(C)(=O)=O)c(=O)[nH]c2cc1C(F)(F)F` (centres undefined) had a melting point of 223 to 226 °C. To `CCOC(=O)c1cccc2nc(C)n(Cc3ccc(-c4ccccc4-c4nnn[nH]4)cc3)c12` belongs 205 to 206 °C; to `CCOC(=O)C(C(=O)OCC)C(N)c1ccc([N+](=O)[O-])cc1C(N)C(C(=O)OCC)C(=O)OCC` (centres undefined), 148 to 151 °C; to `CCOC(=O)C1(CC(N)=O)C(=O)N2CCOc3cc(Cl)cc1c32` (centres undefined), 227 to 229 °C. Under `O=[N+]([O-])c1cccnc1Nc1ccc2c(c1)COC2` stands 146 to 147 °C.

In turn, `O=c1cnn(-c2cc(Cl)c(Cc3ccc(Cc4ccccc4)cc3)c(Cl)c2)c(=O)[nH]1` showed a melting point of 164 to 165 °C. Under `O=C(O)CCCCCNC(=O)c1cc2cc3c(cc2c2cc(OCc4ccccc4)ccc12)OCO3` stands 198 to 200 °C; under `O=C(C=Cc1cccc(-c2ccccc2)c1)Nc1ccc(CN2CCCCC2)cc1`, 159 to 160 °C. To `CS(=O)(=O)c1ccc(-c2cnn(C=C(F)C(F)(F)C(F)(F)F)c(=O)c2-c2ccc(F)cc2)cc1` belongs 167 to 169 °C; to `Cc1c(C)c(C(CO)c2ccc(C(C)C)cc2)c(O)c(C)c1Br` (centres undefined), 96 to 97 °C.

For `COc1cc(C(=O)NC2CCN(C)CC2)ccc1Nc1ncc2c(n1)N(C1CCCC1)CC(F)(F)C(=O)N2C`, the melting point fell in the range of 241 to 243 °C. To `Cc1ccc(C)n1N1C(=O)c2ccccc2C1=O` belongs 182 to 184 °C; to `Cc1cc(Oc2ccc3nc(COc4ccc(CC5SC(=O)NC5=O)cc4)n(C)c3c2)cc(C)c1NC(=O)Nc1ccc([N+](=O)[O-])cc1` (centres undefined), 178 to 180 °C. To `CC1(C(=O)Nc2ccc(-n3nc(C(F)(F)F)cc3C(F)(F)F)cc2)CC1` belongs 109 to 110 °C.

Regarding `CCn1ncc2c(Cl)c3ccc(OC)cc3nc21`, the melting point was in the range of 95 to 98 °C. To `CCCOCCOC(=O)C1=C(C)NN=C(CC)C1c1cccc([N+](=O)[O-])c1` (centres undefined) belongs 76 °C; to `CCCCN1CC=C(c2c[nH]c3ccc(NS(C)(=O)=O)cc23)CC1`, 202 to 204 °C; to `CCOc1cc(OCCCc2cn(-c3ccccn3)nc2OCC)ccc1CCC(=O)O`, 110 to 111 °C. Under `O=C(c1ccc(Cl)cc1)c1ccc(CBr)cc1Cl` stands 88 to 90 °C. To `COc1ccc(S(=O)(=O)N2CCc3cccc(-c4ccc(C(=O)O)cc4)c32)cc1` belongs 130 to 132 °C. On to `O=[N+]([O-])c1ccc(O)c(CNCCC(F)=C(F)F)c1`, for which the melting point lay in the range of 96 to 98 °C. Under `CN(Cc1cnc(Cl)s1)C(=N)N[N+](=O)[O-]` stands 116 to 117 °C; under `Nc1nc(=O)n(C2OC(CO)CC2F)cc1F` (centres undefined), 209 to 210 °C; under `COC(=O)C1=C(C)NC(O)=C(C(=O)OC)C1c1cccc([N+](=O)[O-])c1` (centres undefined), 150 to 152 °C.

With `O=C(Nc1nnn[nH]1)c1c(C(F)(F)F)nc2c(C(F)(F)F)cccc2c1O`, the melting point was > 260 °C.

For the compound `CCCCCCCCCCCCCCOc1ccc(C(=O)OCC)cc1`, the melting point was in the range of 34 to 35 °C. `CCCCOc1cc(CCC(=O)O)ccc1CCCc1ccc(OCCCC)c(OC)c1` returned a melting point of 64 °C. To `NC(=O)Cc1ccc2[nH]cc(CCN3C(=O)c4ccccc4C3=O)c2c1` belongs 191 to 193 °C; to `CC(=O)N1N=C(c2ccc(N)c(C)c2)c2cc(Cl)ccc2C=C1C`, 209 to 211 °C. Under `O=C(Nc1ccc(C(=O)N2Cc3ccccc3Cc3ccccc32)cn1)c1ccccc1-c1ccccc1` stands 134 to 142 °C; under `O=C1C(=O)N(CCl)c2ccccc21`, 121 to 123 °C; under `CCCCCCCCCCCC(=O)c1ccc(CCOC(C)=O)cc1`, 32 to 33 °C.
